Measurements reported in ChEMBL document CHEMBL1126867, “Antipicornavirus activity of tetrazole analogues related to disoxaril” (1993).
Values after ≈ are worked out from the molar mass of the structure shown. Active and inactive are the calls of the source. No cut-off for these calls is given here.

Tests used:
Human rhinovirus 1A [1] = assay: In vitro antiviral activity against human rhinovirus-1A using plaque reduction assay; format: functional
rhinovirus B14 [2] = assay: In vitro antiviral activity against human rhinovirus-14 using plaque reduction assay; format: functional, human rhinovirus type 14; settings: Rhinovirus B
Human rhinovirus sp. = assay: Minimum inhibitory concentration which inhibits 80% of serotypes was determined; format: functional
Human rhinovirus 1A [3] = assay: In vitro antiviral activity against human rhinovirus-1A using plaque reduction assay; not active; format: functional, organism-based
rhinovirus B14 [4] = assay: In vitro antiviral activity against human rhinovirus-14 using plaque reduction assay; not active; format: functional, organism-based; settings: human rhinovirus type 14

MIC50 (Human rhinovirus 1A [1]) | MIC50 (rhinovirus B14 [2]) | MIC80 (Human rhinovirus sp.) | MIC50 (Human rhinovirus 1A [3]) | MIC50 (rhinovirus B14 [4]) | SMILES
0.12 µM (≈ 0.0446 µg/mL) | 0.05 µM (≈ 0.0186 µg/mL) | 0.3 µM (≈ 0.111 µg/mL) | – | – | COCCc1cc(CCCOc2c(C)cc(-c3nnn(C)n3)cc2C)on1
– | 4.35 µM (≈ 1.68 µg/mL) | – | inactive | – | Cc1cc(CCCCCOc2c(C)cc(-c3nnn(CCO)n3)cc2C)on1
0.73 µM (≈ 0.27 µg/mL) | 0.73 µM (≈ 0.27 µg/mL) | 0.65 µM (≈ 0.24 µg/mL) | – | – | CCn1nnc(-c2cc(C)c(OCCCCCc3cc(C)no3)c(C)c2)n1
0.34 µM (≈ 0.121 µg/mL) | 0.45 µM (≈ 0.16 µg/mL) | 0.39 µM (≈ 0.139 µg/mL) | – | – | Cc1cc(CCCCCOc2c(C)cc(-c3nnn(C)n3)cc2C)on1
2.89 µM (≈ 1.33 µg/mL) | 0.33 µM (≈ 0.152 µg/mL) | – | – | – | COCCOCOCc1cc(CCCCCOc2c(C)cc(-c3nnn(C)n3)cc2C)on1
6.5 µM (≈ 2.31 µg/mL) | 1.6 µM (≈ 0.569 µg/mL) | 1.27 µM (≈ 0.451 µg/mL) | – | – | CCCn1nnc(-c2cc(C)c(OCCCc3cc(C)no3)c(C)c2)n1
0.39 µM (≈ 0.145 µg/mL) | 0.08 µM (≈ 0.0297 µg/mL) | 0.6 µM (≈ 0.223 µg/mL) | – | – | CCCOc1cc(CCCOc2c(C)cc(-c3nnn(C)n3)cc2C)on1
2.14 µM (≈ 0.671 µg/mL) | – | – | – | inactive | Cc1cc(CCOc2c(C)cc(-c3nnn(C)n3)cc2C)on1
0.28 µM (≈ 0.0995 µg/mL) | 0.73 µM (≈ 0.259 µg/mL) | 0.73 µM (≈ 0.259 µg/mL) | – | – | Cc1cc(-c2nnn(C)n2)cc(C)c1OCCCc1cc(C(C)C)no1
0.67 µM (≈ 0.229 µg/mL) | 0.8 µM (≈ 0.273 µg/mL) | 0.25 µM (≈ 0.0854 µg/mL) | – | – | CCn1nnc(-c2cc(C)c(OCCCc3cc(C)no3)c(C)c2)n1
4.9 µM (≈ 2.47 µg/mL) | 1.05 µM (≈ 0.529 µg/mL) | – | – | – | Cc1cc(-c2nnn(C)n2)cc(C)c1OCCCCCc1cc(COCCOCCOCCO)no1
1.4 µM (≈ 0.54 µg/mL) | 30.4 µM (≈ 11.7 µg/mL) | – | – | – | Cc1cc(-c2nnn(C)n2)cc(C)c1OCCCCCc1cc(C(=O)O)no1
0.2 µM (≈ 0.0687 µg/mL) | 3.4 µM (≈ 1.17 µg/mL) | 3.4 µM (≈ 1.17 µg/mL) | – | – | Cc1cc(-c2nnn(C)n2)cc(C)c1OCCCc1cc(CO)no1
– | 0.13 µM (≈ 0.0483 µg/mL) | – | inactive | – | CCC(O)c1cc(CCCOc2c(C)cc(-c3nnn(C)n3)cc2C)on1 (centres undefined)
– | – | – | inactive | inactive | Cc1cc(COc2c(C)cc(-c3nnn(C)n3)cc2C)on1
0.14 µM (≈ 0.05 µg/mL) | 1.4 µM (≈ 0.5 µg/mL) | 1.1 µM (≈ 0.393 µg/mL) | – | – | Cc1cc(-c2nnn(C)n2)cc(C)c1OCCCc1cc(C(C)O)no1 (centres undefined)
0.2 µM (≈ 0.0743 µg/mL) | 0.17 µM (≈ 0.0631 µg/mL) | 0.4 µM (≈ 0.149 µg/mL) | – | – | Cc1cc(-c2nnn(C)n2)cc(C)c1OCCCc1cc(CCCO)no1
6.5 µM (≈ 2.4 µg/mL) | – | – | – | inactive | CCCCn1nnc(-c2cc(C)c(OCCCc3cc(C)no3)c(C)c2)n1
0.46 µM (≈ 0.17 µg/mL) | 0.32 µM (≈ 0.118 µg/mL) | 1.5 µM (≈ 0.554 µg/mL) | – | – | Cc1cc(-c2nnn(C)n2)cc(C)c1OCCCc1cc(CC(C)C)no1
